B1: Amb a IA(t): truncated recombinant Amb a IA, amino acid 70-398, E. coli expressed, used as crude bacterial lysate (protein)
chain: DCAQGFGKGTVGGKDGDIYTVTSELDDDVANPKEGTLRFGAAQNRPLWIIFERDMVIRLDKEMVVNSDKTIDGRGAKVEIINAGFTLNGVKNVIIHNINMHDVKVNPGGLIKSNDGPAAPRAGSDGDAISISGSSQIWIDHCSLSKSVDGLVDAKLGTTRLTVSNSLFTQHQFVLLFGAGDENIEDRGMLATVAFNTFTDNVDQRMPRCRHGFFQVVNNNYDKWGSYAIGGSASPTILSQGNRFCAPDERSKKNVLGRHGEAAAESMKWNWRTNKDVLENGAIFVASGVDPVLTPEQSAGMIPAEPGESALSLTSSAGVLSCQPGAPC

Columns and labels:
[1] = test system: ragweed pollen-specific T cells of ragweed allergic patients; experiment: Secondary and tertiary T cell proliferation assays of a panel of ragweed allergic patients with synthetic peptides; format: cell-based, human; conditions: for Stimulation of ragweed allergic patient T cells by synthetic peptide (in words): in vitro proliferation assays; for NUMBER POSITIVE (patients with T cell response to peptide) / POSITIVE % (patients whose T cells are stimulated by peptide): positive = T cell proliferative response greater than 2-fold above culture medium control
Protocol: (§1) Peripheral blood mononuclear cells (PBMC) were purified from 60 ml of heparinized blood from ragweed-allergic patients. PBMC were subsequently treated as described below, although in individual cases, the length of time of cultivation with IL-2 and IL-4 and the specific ragweed proteins and peptides used for stimulation varied. As an example, ten ml of patient 222 PBMC at 10^6/ml were cultured at 37° C. for 7 days in the presence of 20 micrograms aqueous ragweed pollen extract/ml RPMI-1640 supplemented with 5% pooled human AB serum. Viable cells were purified by Ficoll-Hypaque centrifugation and cultured for three weeks at 5 units recombinant human IL-2/ml and 5 units recombinant human IL-4/ml. The resting T cells were then restimulated (secondary) with 20 micrograms aqueous ragweed pollen extract/ml at a density of 2×10^5 cells/ml in the presence of X-irradiated (3500 RADS) autologous PBMC (5×10^5/ml) for three days, purified by Ficoll-Hypaque centrifugation and grown in 5 units IL-2/ml and 5 units IL-4/ml for two weeks. For assay, 2×10^4 resting secondary T cells were restimulated (tertiary) in the presence of 5×10^4 X-irradiated (3500 RADS) autologous PBMC or 2×10^4 autologous Epstein-Barr virus-transformed B cells (20,000 RADS) with various concentrations of allergen or their fragments in a volume of 200 microliters in 96-well round bottom assay plates for 3 days. Each well then received 1 microCurie tritiated (methyl) thymidine for 16 hours. The counts incorporated were collected onto glass fiber filters and processed for liquid scintillation counting. […] Antigens used: IPC aqueous pollen extract (pollen), Hollister-Stier ragweed skin test extract (RWST), ALK cat epithelium skin test extract (CST), affinity 4B5/B7 antibody purified (dialyzed) Amb a I (B7), and chromatographically purified Amb a I and (Amb a I). Medium only control is shown as a line with no symbol. Alternatively, PBMC were sometimes carried only into a secondary assay (as outlined above for a tertiary assay) with 20 micrograms aqueous pollen extract 7 days, followed by culture in 5 units IL-2/ml and 5 units IL-4/ml for 2-3 weeks. […] Secondary and tertiary assays of a panel of ragweed allergic patients were performed using synthetic peptides derived from the sequences of various ragweed pollen proteins. […] Another four peptides (RAE15.6, RAE3.D, RAE28.1, RAE26.15) which are also derived from the sequence of the same three cDNA's could stimulate 35 to 58% of the patients' T cells. One peptide (RAE4) which is derived from the cDNA of IPC Clone 5 could also stimulate 25% of the patients' T cells. […] By this method it is possible to identify novel therapeutic and diagnostics entities for use in the treatment and the diagnosis of ragweed allergy.

[2] = test system: T cells from patients allergic to ragweed; experiment: T cell proliferation of ragweed allergic patient T cells to ragweed proteins and recombinant lysates (tritiated thymidine); format: cell-based, human
Text: T cells from patients allergic to ragweed, previously stimulated with a mixed ragweed pollen extract, can recognize and proliferate in response to pollen extract, ragweed skin test reagent (RWST), affinity purified Amb a I protein and crude bacterial lysates containing recombinant Amb a I gene products IA, IB and IC (Table 4). […] The use of crude bacterial lysates as antigens precludes a firm conclusion form the negative responses, since the relative levels of recombinant proteins in lysate have not been determined.
as §1

[3] = test system: human IgE (ragweed allergic patient sera); experiment: SDS-PAGE Western blot (and ELISA) of ragweed allergic patient IgE binding to pollen, affinity purified and recombinant Amb a I / Amb a II; set-up: key to IgE binding, summarized Western blot data: −: no signal over background; +−: barely discernable over background; +: clearly positive; ++: strongly positive; +++: highly positive
Protocol: As represented in FIG. 1A, a selected monoclonal antibody (designated 4B5/B7) which recognizes an Amb a I preparation unsubjected to denaturing conditions was used to affinity purify from pollen extract a single protein, which is referred to as affinity purified Amb a I. This was carried out, using known techniques, by producing the desired monoclonal antibody, isolating it in large quantities from ascites and immobilizing it on Sepharose (Pharmacia). Aqueous pollen extract was passed over the monoclonal antibody-containing column and a protein species was eluted.
Furthermore, full-length and truncated cDNAs encoding several members of the Amb a I multigene family, as well as Amb a II, were cloned in-frame into the expression vector pTrc99 (Amann et al. Gene, 69:301-315, (1988)) and transformed into the JM109 host. Expression of recombinant Amb a I and Amb a II protein was induced by 1 mM isopropyl-β-D-thiogalactopyranoside, cells were harvested, lysozyme treated, sonicated and insoluble inclusion bodies recovered by a low speed centrifugation. Recombinant Amb a I and Amb a II protein present in the recovered pellet was solubilized in buffer containing 8M urea, 50 mM Tris HC1 pH8.0, 50 mM NaCl, 1 mM EDTA, 1 mM dithiothreitol, 1 mM phenylmethylsulfonyl fluoride. After solubilization, the crude urea lysate was dialyzed at 4° C. against PBS. […] This antigenic cross-reactivity is consistent with the observed sequence homology of the cDNAs (see FIG. 16).
Comparison of human IgE binding to recombinant Amb a I and Amb a II proteins with anti-peptide and monoclonal anti-Amb a I antibodies have provided data consistent with the conclusion that the N-terminal portion (historically referred to as the β-region) of Amb a IA includes the major IgE eptiope(s).
Affinity purified Amb a I was electrophoresed, Western transferred (Towbin et al., Proc. Natl. Acad. Sci. USA, 76:4350 (1979)) and probed with a variety of antibodies, including IgE from an allergic patient (FIG. 17). In pollen extract Amb a I is not only present as an intact 38-KD species, but also characterized by its component 26KD alpha chains and 12-KD beta chains which are formed by enzymatic cleavage. The intact 38-KD species and the alpha chain are clearly detected using rabbit anti-Amb a I, polyclonal affinity purified anti-RAE 16 and monoclonal anti-Amb a I JBIE3-4 (FIG. 17); RAE 16 peptide has the sequence RTDKDLLENGAIC derived from amino-acids […] of Amb a IB, FIG. 16). Affinity purified Amb a I (partial sequence presented in Table 1) as well as chromatographically purified Amb a II (partial sequence presented in Table 2) are bound on Western blots by these antibodies as well as by patient IgE (FIG. 17). The goat anti-Amb a I polyclonal antibody also binds multiple Amb a I and Amb a II species on a two dimensional Western blot of pollen extract (FIG. 18). The Western blot was performed as outlined below. […]

| Molecule | Stimulation of ragweed allergic patient T cells by synthetic peptide (in words) [1] | NUMBER POSITIVE (patients with T cell response to peptide) [1] | POSITIVE % (patients whose T cells are stimulated by peptide) [1] | further results |
| --- | --- | --- | --- | --- |
| ETRRSLKTSGAYNIIDGCWRGKAD [RAE 24.E] | could not stimulate any | 0 | 0% |  |
| LENGAIFVASGVDPVLTPEQ [RAE 28.1] |  | 17 | 52% |  |
| FFPILGGITEVKDNDNSVDFC [RAE 4, synthetic peptide deduced from IPC Clone 5] | stimulates | 7 | 25% | Stimulation of ragweed allergic patient T cells by synthetic peptide (in words) ([1]; listed as RAE4): could be stimulated |
| YTVTSDKDDDVANC [RAE 15.6] |  | 7 | 35% |  |
| RTDKDLLENGAIC [RAE 16.6] | could not stimulate any | 0 | 0% |  |
| GFFQVVNNNYDRWGTYA [RAE 26.15] |  | 14 | 58% |  |
| GKADWAENRC [RAE 3.D] |  | 13 | 37% |  |
| LNQELVVNSDKTIDGRGVK [RAE 45.15] | could not stimulate any | 0 | 0% |  |
| B1 |  |  |  | Stimulatory response of human T cells (proliferation compared to medium control) ([2]; patient 151 2° (secondary assay)): + (2-4 fold); Stimulatory response of human T cells (proliferation compared to medium control) ([2]; patient 222 2° (secondary assay)): ++ (4-10 fold); Stimulatory response of human T cells (proliferation compared to medium control) ([2]; patient 295 2° (secondary assay)): + (2-4 fold); Stimulatory response of human T cells (proliferation compared to medium control) ([2]; patient 296 2° (secondary assay)): +++ (>10 fold); Stimulatory response of human T cells (proliferation compared to medium control) ([2]; patient 314 2° (secondary assay)): +++ (>10 fold); Stimulatory response of human T cells (proliferation compared to medium control) ([2]; patient 316 2° (secondary assay)): +++ (>10 fold); Stimulatory response of human T cells (proliferation compared to medium control) ([2]; patient 320 2° (secondary assay)): ++ (4-10 fold); Stimulatory response of human T cells (proliferation compared to medium control) ([2]; patient 321 2° (secondary assay)): ++ (4-10 fold); Human IgE binding (in words) ([3]; Western blot (FIG. 17) and/or ELISA, ragweed allergic patient IgE): less well than the full-length Amb a IA; IgE binding, summarized Western blot data ([3]; patient 151): −; IgE binding, summarized Western blot data ([3]; patient 222): +−; IgE binding, summarized Western blot data ([3]; patient 291): +; IgE binding, summarized Western blot data ([3]; patient 295): + |
